Laboratory results as given in BigSolDB 2.1.

CC(C)(C)NSc1nc2ccccc2s1
solubility (mole fraction)
Settings | 273.2 K | 278.2 K | 283.2 K | 288.2 K | 293.2 K | 298.2 K | 303.2 K | 308.2 K | 313.2 K
in ethanol | 0.00951 | 0.0111 | 0.0133 | 0.0157 | 0.0198 | 0.0236 | 0.0278 | 0.0344 | 0.0419
in isopropanol | 0.00844 | 0.00938 | 0.0122 | 0.015 | 0.0176 | 0.0208 | 0.025 | 0.0298 | 0.0352
in methanol | 0.00591 | 0.00707 | 0.00834 | 0.00991 | 0.0123 | 0.0148 | 0.0178 | 0.0219 | 0.0266
in n-butanol | 0.0177 | 0.0202 | 0.0237 | 0.028 | – | 0.0375 | 0.0444 | 0.0524 | 0.061
in tert-butylamine | 0.0952 | 0.107 | 0.115 | 0.124 | 0.135 | 0.149 | 0.165 | 0.176 | 0.198
in toluene | 0.0273 | 0.0355 | 0.0422 | 0.0518 | 0.0605 | 0.0691 | 0.084 | 0.102 | 0.122
